Experimental data published in US8877785B2, “Methods and compositions for enhancing sensitivity of cytotoxic drugs with timely combinatorial therapy with carboxyamidotriazole orotate” (Tactical Therapeutics Inc, priority 2009, dated 2014).

Key:
[1] = test system: human LOX IMVI melanoma xenografts; experiment: Antitumor activity against SC-implanted human LOX IMVI melanoma xenografts (experiment TTI-6A); format: in vivo, mice
Source text: The purpose of the experiment TTI-6A was to evaluate the antitumor activity of CTO when administered in combination with temozolomide against subcutaneously (SC)-implanted human LOX IMVI melanoma xenografts in female, athymic NCr-nu/nu mice. Female six-week-old athymic NCr-nu/nu mice were purchased from Charles River Laboratories (Wilmington, Mass.). Human LOX IMVI melanoma cells were maintained as an ascites passage. […] The day of tumor fragment implantation was designated as Day 0.
(§1) CTO was administered to mice by exact individual animal's body weight on each day of treatment, with the injection volume being 0.1 mL/10 g body weight. temozolomide dosing formulations were administered to mice within 30 minutes of formulation by exact individual body weight on each day of treatment, with the injection volume being 0.2 mL/10 g body weight.
The study consisted of nine groups of ten mice per group. Animals in Group 1 were treated with the CTO vehicle (40% PEG 400 in deionized water) on a Q1Dx14 schedule (Days 6-19) in combination with the temozolomide vehicle (0.3% Klucel in saline), which was administered on a Q4Dx3 schedule (Days 6, 10, and 14). Animals in Groups 2 and 3 were treated with CTO at doses of 513 and 342 mg/kg/dose, respectively, on a Q1Dx14 schedule. Animals in Groups 4 and 5 were treated with temozolomide at, doses of 90 and 60 mg/kg/dose, respectively, on a Q4Dx3 schedule. Animals in Groups 6 and 7 were treated with CTO on a Q1Dx14 schedule at doses of 513 and 342 mg/kg/dose, respectively, in combination with temozolomide which was administered at a dose of 90 mg/kg/dose on a Q4Dx3 schedule. Animals in Groups 8 and 9 were treated with CTO on a Q1Dx14 schedule at doses of 513 and 342 mg/kg/dose, respectively, in combination with temozolomide which was administered at a dose of 60 mg/kg/dose on a Q4Dx3 schedule.
The SC tumors were measured and the animals were weighed two times a week. Tumor volume was determined by the formula for an ellipsoid sphere: L×W^2/2=mm^3, where L and W refer to the larger and smaller perpendicular dimensions collected at each measurement. The experiment was terminated on Day 35.
Parameters Evaluated—Number of nonspecific deaths, number of complete tumor regressions, number of tumor-free survivors on Day 35, and the median time for the tumors to reach four tumor mass doublings were determined. Comparison of the median tumor weight in the treatment groups to the median tumor weight in the control group (T/C×100%) on Day 19 (the last day of treatment with CTO and the last day of data collection when mice in the control group were still alive) was used for an additional evaluation of the antitumor efficacy of the combination treatments. […] FIG. 1.

[2] = given in combination (CTO Q1Dx14, temozolomide Q4Dx3); MTD = dose without death and no more than 20% mean body weight loss
Source text: The purpose of the first experiment was to evaluate the tolerance of female athymic NCr-nu/nu mice to the combination treatment of 5-amino-1-(4-(4-chlorobenzoyl)-3,5-dichlorobenzyl)-1,2,3-triazole-4-carboxyamide orotate (CTO) and a cytotoxic chemotherapeutic agent selected from the group consisting of temozolomide, 5-FU, methotrexate, doxorubicin and daunorubicin.
Polyethylene glycol (PEG 400, MW 400) was purchased from Aldrich Chemistry. Deionized water was purchased from LabChem, Inc. Klucel (hydroxypropyl cellulose) was purchased from Aldrich. Saline (physiological saline solution, for animal use only) was purchased from Nova-Teck, Inc. Tween 80 (T80, polysorbate 80) was purchased from Fisher Scientific. CTO (MW 580.76) was stored at room temperature protected from light upon receipt. CTO was formulated once a week (on Days 1 and 8) at a concentration of 51.3 mg/mL in 40% PEG 400 in deionized water. Temozolomide® (temozolomide, Schering Co., 20 mg/capsule) was prepared on each day treatment by adding several drops of T80 to the powder, and then adding 0.3% Klucel in saline to yield a concentration of 4.5 mg/mL.
The study consisted of four groups of five mice per group for a total of 25 mice on Day 1. […]

[3] = Body weight loss and deaths in LOX IMVI tumor-bearing athymic NCr-nu/nu mice (experiment TTI-6A); format: in vivo
Source text: The purpose of the experiment TTI-6A was to evaluate the antitumor activity of CTO when administered in combination with temozolomide against subcutaneously (SC)-implanted human LOX IMVI melanoma xenografts in female, athymic NCr-nu/nu mice. Female six-week-old athymic NCr-nu/nu mice were purchased from Charles River Laboratories (Wilmington, Mass.). Human LOX IMVI melanoma cells were maintained as an ascites passage. Each mouse was implanted SC near the right flank with one million (1×10^6) of the LOX IMVI human melanoma cell from an in vivo passage using a 23 g needle. The day of tumor fragment implantation was designated as Day 0. Individual tumors of 90 animals grew to 126-198 mg in weight (126-198 mm^3 in size) on Day 6 after tumor implantation (Jul. 20, 2011), the day of treatment initiation. Those animals selected with tumors in the proper size range were assigned to nine treatment groups so that the mean tumor weights in all groups on Day 6 were as close to each other as possible (mean tumor weights being 165 or 166 mg, median tumor weights ranging from 162 to 176 mg).
as §1
The study consisted of nine groups of ten mice per group. […]
The SC tumors were measured and the animals were weighed two times a week. Tumor volume was determined by the formula for an ellipsoid sphere: L×W^2/2=mm^3, where L and W refer to the larger and smaller perpendicular dimensions collected at each measurement. […]
Parameters Evaluated—Number of nonspecific deaths, number of complete tumor regressions, number of tumor-free survivors on Day 35, and the median time for the tumors to reach four tumor mass doublings were determined. […]

[4] = Group 4: temozolomide 90 mg/kg/dose oral Q4Dx3 alone
[5] = Group 5: temozolomide 60 mg/kg/dose oral Q4Dx3 alone

Compound | inhibition of the growth of the human LOX IMVI melanoma xenografts (in words) ([1]; CTO 513 or 342 mg/kg/dose oral for fourteen consecutive days) | median tumor growth delay ([1]; Group 2: CTO 513 mg/kg/dose Q1Dx14 alone) [days] | T/C value (median tumor weight treated/control x100%) on Day 19 ([1]; Group 2: CTO 513 mg/kg/dose oral Q1Dx14 alone) [%] | median tumor growth delay ([1]; Group 3: CTO 342 mg/kg/dose Q1Dx14 alone) [days] | T/C value (median tumor weight treated/control x100%) on Day 19 ([1]; Group 3: CTO 342 mg/kg/dose oral Q1Dx14 alone) [%] | maximum tolerated dose (MTD) [2] | delay in the growth of the median tumor ([1]; Group 4: temozolomide 90 mg/kg/dose Q4Dx3 alone) [days] | T/C value (median tumor weight treated/control x100%) on Day 19 [1, 4] [%] | median time for the tumor to reach four tumor mass doublings [1, 4] [days] | delay in the growth of the median tumor ([1]; Group 5: temozolomide 60 mg/kg/dose Q4Dx3 alone) [days] | T/C value (median tumor weight treated/control x100%) on Day 19 [1, 5] [%] | median time for the tumor to reach four tumor mass doublings [1, 5] [days] | maximum mean body weight loss [3, 4] [%] | maximum mean body weight loss [3, 5] [%] | maximum mean body weight loss ([3]; Groups 4 and 5: temozolomide 90 and 60 mg/kg/dose oral Q4Dx3 alone, both groups) [g]
5-amino-1-(4-(4-chlorobenzoyl)-3,5-dichlorobenzyl)-1,2,3-triazole-4-carboxyamide orotate [CTO] | measurable inhibition | 3.1 | 65 | 1.6 | 70 | above 513 mg/kg/dose | – | – | – | – | – | – | – | – | –
Cn1nnc2c(C(N)=O)ncn2c1=O [temozolomide] | – | – | – | – | – | > 90 mg/kg/dose | 8.5 | 36 | 17.2 | 3.6 | 57 | 12.3 | 7 | 7 | 1.6 to 1.8
